Molecules are shown by their SMILES.

By melting point is commonly meant the temperature of the solid-liquid transition. The compound `N#Cc1ccc(CNC(=O)C2Cc3ccccc3N2S(=O)(=O)c2ccc(-c3cccc(C(F)(F)F)c3)cc2)cc1` (configuration not stated) returned a melting point of 80 to 89 °C. Take `CNc1nc(CCN2CCC(Nc3nc4ccccc4n3Cc3ccc(F)cc3)CC2)c(C)s1`: the melting point came out at 182 °C. To `COc1cc2ncc(N[C@H]3CC[C@H](C(=O)OC)CC3)nc2cc1OC` belongs 68 to 80 °C; to `O=C(O)CCCCCCNC(=O)C1Cc2ccccc2N1S(=O)(=O)c1ccc(-c2cccc(C(F)(F)F)c2)cc1` (configuration not stated), 65 to 70 °C; to `CC(C)Cc1ccc2c(c1)OC(=O)C2`, 24 to 25 °C. In the case of `Sc1nnc(-c2ccc3c(c2)CCO3)o1` it was 219 to 221 °C; in that of `CC1COCc2nc3c(N)nc4c(c3n21)CCCC4` (configuration not stated), 209 to 211 °C.

`COc1ccc(S(=O)(=O)Nc2cccc(Cl)c2/C=C/c2ccncc2)cc1` yielded a melting point of 188 to 190 °C. Turning to `Cc1cc2oc3ccccc3c(=O)c2cc1OCC(=O)O`, the melting point is 225 to 227 °C. In the case of `O=c1c2ccc(-c3nnn[nH]3)cc2oc2ccc(-c3nnn[nH]3)cc12` it was greater than 400 °C; in that of `CCOC(=O)c1ncn2c1cc(-c1ccccc1)c1ccccc12`, 176 to 185 °C; in that of `CC(Cc1c[nH]c2ccccc12)(NC(=O)OC12CC3CC(CC(C3)C1)C2)C(=O)O` (racemic), 206 to 218 °C. In turn, `OCCCc1cnoc1-c1ccc(OC(F)(F)F)cc1` showed a melting point of 50 to 51 °C. To `CCOC(=O)C1=C(C)NC(c2ncc[nH]2)=NC1c1ccc(F)cc1Cl` (configuration not stated) belongs 157 to 162 °C. For the compound `O=C1N(CC2CCC2)c2ccccc2C1(O)c1ccc2c(c1)OCO2` (configuration not stated), the melting point was in the range of 124 to 125 °C. To `O=C(CCCCNC(=O)C(=O)c1cn2c3c(cccc13)CCC2)NOCc1ccccc1` belongs 62 to 64 °C. To `Cc1cc(Br)cc(C)c1N([Si](C)(C)C)[Si](C)(C)C` belongs 47 to 52 °C. In the case of `COC(=O)C1CCCN1C(=O)c1ccccc1` (configuration not stated) it was 88.5 to 90 °C. `CCOC(=O)c1cn(-c2nnn[nH]2)c2cc(F)c(F)cc2c1=O` showed a melting point of 233 to 236 °C. In turn, `COC(OC)c1ccc(C=C2C(=O)C3(C)CCC2C3(C)C)cc1` (configuration not stated) showed a melting point of 98 °C. In the case of `CCOC(=O)Cc1nn(CC(=O)Nc2ccccc2)c(=O)c2ccccc12`, the melting point worked out at 187 °C. To `CCCCc1nc2ccccn2c(=O)c1-c1ccc2[nH]ccc2c1` belongs 132 to 135 °C. Take `CCCCCCCCCCCCCCCCCCOCC(COC(c1ccccc1)(c1ccccc1)c1ccccc1)OC(=O)N(C)C` (configuration not stated): the melting point fell in the range of 57.5 to 58 °C.

Compound `Cc1cc(OCc2coc(/C=C/c3ccc(S(=O)C(F)(F)F)cc3)n2)ccc1CCCCc1c[nH]nn1` (configuration not stated) had a melting point of 113 to 114 °C. To `CCOC(=O)/C=C/c1c(-c2ccc(F)cc2)n(C(C)C)c(=O)c2ccccc12` belongs 167 to 169 °C. In the case of `CC1(COc2ccc(CP(=O)(O)O)cc2)CCCCC1`, the melting point is 170 to 172 °C. Turning to `C#CCNC(=NCCSCc1ccc(CN(C)C)o1)NC#N`, the melting point was 122 to 124 °C. In turn, `COC(=O)[C@H](Cc1cccc(O)c1)NC(=O)OC(C)(C)C` had a melting point of 61 to 65 °C. Take `CC(=O)OC1CSC(Oc2cccnc2-c2ccc(F)cc2)C(OC(C)=O)C1OC(C)=O` (configuration not stated): the melting point stood at 149 °C. As for `COc1ccc(CC(C)(C)CO)cc1OC`, the melting point lay within 48.5 to 50 °C. `N#CCC(C(=O)N1C(=O)OCC1c1ccccc1)c1ccccc1F` (configuration not stated) showed a melting point of 179 to 181 °C. `Cc1nc(N2CCN(Cc3ccc(C(F)F)o3)C2=O)sc1C(=O)NCc1cccnc1` showed a melting point of 142 to 143 °C. On to `CC(C)(Cc1ccccc1)Nc1c(NCc2cc3cc(C#N)ccc3o2)c(=O)c1=O`, for which the melting point was in the range of 233 to 235 °C. In the case of `COC(=O)C1=C(CCc2ccccc2OC)NC(CC(=O)N2CCN(CCCN(C)C)CC2)=C(C(=O)OC)C1c1c(Cl)cccc1Cl` (configuration not stated) it was 156 to 158 °C. As to `Cc1c(NCc2ccccc2)c2c(c3c1C(c1ccc(C(C)C)cc1)CO3)CCCC2` (configuration not stated), the melting point lay in the range of 98 to 99 °C. In the case of `COc1cc2ncnc(N3CCCc4cc(C)ccc43)c2cc1OC` it was 147 to 148 °C; in that of `O=C(O)CCc1cccc2c1NC(=O)CC2`, 164 to 165 °C; in that of `COc1ccc(C(=O)C2CCCCC2C(=O)O)cc1OC` (configuration not stated), 171 to 175 °C.

For the compound `CC(=O)NC[C@H]1CN(c2cc(F)c(N3CCC(n4nnc(N5CCNCC5)n4)CC3)c(F)c2)C(=O)O1`, the melting point is 180 to 185 °C. To `CC(OS(C)(=O)=O)C(=O)O` (single isomer, unassigned; (-)) belongs 65 to 72 °C. On to `FC(F)(F)c1cc(Br)cc(C(F)(F)F)n1`, for which the melting point lay within 92 to 95 °C. In the case of `CC(C)N(C(=O)CNc1ccccc1N)c1ccccc1` it was 110 to 112 °C. To `CN1c2ccc(-c3ccc4ccccc4c3)cc2S(=O)(=O)c2cc(-c3ccc4ccccc4c3)ccc21` belongs 328 to 332 °C; to `CCCCCS(=O)(=O)NC(=O)c1ccc2nc(C)n(Cc3ccc(N(C)CC)cc3Cl)c2n1`, 148 to 149 °C.

With `CCOC(=O)C(=O)c1ccccc1C(=O)c1ccc(Cl)cc1`, the melting point was 79 to 81 °C. In the case of `CC(C)[C@@H]1C[C@H](O)[C@H](C2CCCCC2)NC1=O`, the melting point was in the range of 97 to 99 °C. `O=C(CCCCCCCCCC=C(F)F)Nc1ccccc1Cl` showed a melting point of 54 to 55 °C. As to `CCNC(=O)Nc1ccc(Oc2ccc3nc(COc4ccc(CC5SC(=O)NC5=O)cc4)n(C)c3c2)cc1` (configuration not stated), the melting point fell in the range of 227 to 230 °C. In the case of `CC(C)(C)OC(=O)C(F)=CC1C(C(=O)O)C1(C)C` (configuration not stated), the melting point was determined as 90 °C.

In turn, `CC(=O)c1ccc(-c2c(C)c(NC(=O)CC(C)(C)C)c(C)c3c2OCC3c2ccc(C(C)C)cc2)s1` (configuration not stated) displayed a melting point of 157 to 158 °C. To `CCCCC1=NC2(CCCC2)C(=O)N1Cc1ccc(-c2ccccc2S(=O)(=O)Nc2noc(C)c2C)c(COCCF)c1` belongs 68 to 73 °C; to `CCCOc1cccc(C2(c3ccncc3)N=C(N)N(C)C2=O)c1` (configuration not stated), 173 to 175 °C; to `Cc1cc(C)nc(NC(=O)NS(=O)(=O)C2CCCCCCCCCCC2Cl)n1` (configuration not stated), 84 °C. The compound `COc1cccc2c(=O)[nH]c(C3CCN(C)CC3)cc12` had a melting point of 239 to 242 °C. To `COc1cnn(-c2cccc(COc3ccccc3)c2)c(=O)c1OC` belongs 82 to 85 °C; to `Nc1nc2c(ncn2[C@@H]2C[C@H](O)[C@@H](O)[C@H]2O)c(=O)[nH]1` (racemic), 295 °C; to `COc1c(C2CCN(CCCCNC(=O)c3ccc(-c4ccc(Cl)cc4)cc3)CC2)ccc2ccccc12`, 197 °C. With `Cc1nc(-c2ccccc2)cc(-c2ccc([N+](=O)[O-])cc2)c1C(=O)O`, the melting point fell in the range of 260 to 263 °C. Compound `COc1cc(C=C[N+](=O)[O-])cc(OC)c1OC` registered a melting point of 116 to 118 °C. To `COC(=O)c1ccc(OC)c(C=O)c1O` belongs 123 to 124 °C; to `ON=C(c1ccccc1OCc1ccc(Cl)cc1)n1ccnc1`, 196 to 197 °C; to `Cn1cc(Cl)c(-n2ccnc2S(N)(=O)=O)n1`, 208 to 210 °C.

Turning to `CCC(=O)c1cc(Cl)ccc1NS(=O)(=O)C(F)(F)F`, the melting point was 54 to 55 °C. Consider `CC(C)CCNC(=NC#N)Nc1cccnc1`, for which the melting point was found to be 136 °C. In the case of `CC1(C)CCC(C)(C)c2cc(CC#Cc3ccc(C(=O)O)c(O)c3)c(O)cc21` it was 216 to 217 °C.

In the case of `c1ccc(-c2ccc3c(CCN4CCCCC4)c(-c4ccccc4)[nH]c3c2)cc1`, the melting point was in the range of 129 to 131 °C. For the compound `Nc1nc2n(C3OC(CO)C(O)C3O)[nH]cc-2c(=S)n1` (configuration not stated), the melting point fell in the range of 222 to 224 °C. Turning to `COC(=O)C(Cc1ccccc1)Oc1ccc2cc(-c3csc(-c4ccccc4)n3)ccc2c1Br` (configuration not stated), the melting point lay within 96 to 101 °C. As for `CCOC(=O)CCNCC(O)COc1cccc(OC)c1` (configuration not stated), the melting point is 72 °C. In the case of `CCOC(=O)C(C#N)=CN(C)C1CCCCC1` it was 71 to 72 °C; in that of `CCOc1nn(Cc2ccc(OCc3ccc4ccccc4n3)nc2)cc1CCC(=O)O`, 133 to 134 °C. For the compound `CN(Cc1cc2c3c(c1)c(=O)c(C(=O)NCc1ccc(Cl)cc1)cn3CC(=O)N2C)C[C@@H](O)c1cnccn1`, the melting point is 97 to 98 °C.

`CNC(=O)c1sc(C(C)(C)C)cc1NC(=O)Nc1ccc(C)cc1` gave a melting point of 202 to 204 °C. Consider `COc1cc(-n2cccn2)ccc1-n1cc(OC)c(=O)c(C(C)=O)n1`, for which the melting point was 193 to 196 °C. In the case of `O=C(O)c1ccc2c(ccn2Cc2cccc([N+](=O)[O-])c2)c1`, the melting point lay within 251 to 254 °C.

Take `CCC12CCC3C4CCC(=O)C=C4CCC3C1CCC2C(C)=O` (configuration not stated): the melting point is 138 to 142 °C. To `COC(=O)CCCN(C(=O)C(C)N(C(C)=O)c1ccc(OC)cc1)c1ccc(OC)cc1` (configuration not stated) belongs 111 to 113 °C; to `CC1COC(c2nsc3ccc(-n4c(=O)cc(C(F)(F)F)n(C)c4=O)cc23)O1` (configuration not stated), 81 to 83 °C; to `CSc1nc(N2CCc3ccccc3CC2)c(C#N)c2nncn12`, greater than 200 °C. `CCOCc1nc2c(N)nc3ccccc3c2n1CCCCCC(=O)N1CCOCC1` showed a melting point of 160 to 162 °C. Turning to `O=C(c1nc(-c2ccccc2)nc2ccccc12)N1CCCCC1`, the melting point was determined as 160 °C. To `COc1nc(-c2ccccc2)n(Cc2ccc(-c3ccccc3S(N)(=O)=O)cc2)c1C=O` belongs 188 °C.

`O=C1NCCn2c1nc1ccccc12` came in with a melting point greater than 250 °C. Turning to `O=[N+]([O-])c1ccc(NCCCn2ccnc2)cc1`, the melting point was in the range of 130 to 132 °C. In the case of `O=C(SCCC(=O)N1c2ccccc2CC1C(=O)O)c1ccccc1` (configuration not stated) it was 173 to 175 °C; in that of `CNC1=NS(=O)N=C1NCCCN(Cc1ccccc1)c1ccccn1` (configuration not stated), 122 to 123 °C. Consider `COc1ccc(-c2ccc(C(=O)NCCOc3ccc(CC(Oc4ccc(C(C)C)cc4)C(=O)O)cc3)cn2)cc1` (configuration not stated), for which the melting point was in the range of 166 to 167 °C.

(Values after a melting point compilation (Tetko et al.; mined from patent text by program, amines drawn as free bases though some values may be those of a salt).)
